Data published in patent US10537103B2, “Antibacterial composition containing an isomer mixture of monosaccharide alkyl monoacetals or monoethers” (TEREOS STARCH & SWEETENERS BELGIUM, priority 2014, dated 2020).
In brackets after ≈: the same amount, converted by molar mass.

Assays:
[1] = system: L. monocytogenes (CIP 103575); test: Minimum inhibitory concentration (MIC), 96-well microplate microdilution; type: cell-based; settings: Listeria monocytogenes, CIP103575, 18 h at 37° C.
Method: (§1) The bacteriostatic properties of the derivatives are evaluated by measuring their minimum inhibitory concentration (MIC) on the bacteria tested. These measurements are made using the 96-well microplate microdilution method according to the conditions defined below.
(§2) The minimum inhibitory concentrations (MIC) are tested on Gram-positive bacterial strains according to the recommendations of the “Clinical Laboratory Standards Institute” (Clinical-Laboratory-Standards-Institute, 6th ed. Approved standard M100-S17. CLSI, Wayne, Pa., 2007).
(§3) The Gram-positive bacteria studied are as follows: L. monocytogenes (CIP 103575), E. faecalis (ATCC® 29212™) and S. aureus (ATCC® 292213™).
(§4) The cultures studied, freshly isolated (after incubation on a blood agar at 37° C. for 18 h), are taken up in sterile water (10 mL) until obtaining a 0.5 McFarland (Mc) suspension i.e. 1 to 2×10^8 CFU (bacteria)/cm^3. The bacterial suspension was then diluted to obtain a final concentration of 5×10^5 CFU/cm^3.
(§5) Each well contains an identical quantity of Mueller-Hinton medium (a rich medium for bacterial culture) and bacteria with final 5×10^5 CFU/cm^3.
(§6) The test compounds of interest are solubilized in 2.5% m of ethanol before being diluted to different concentrations two by two.
(§7) On the multiwell plate, a first series has been planned comprising the culture medium without the test compound of interest. It corresponds to the growth control (control well). These controls serve as reference for comparing bacterial growth with that of the subsequent wells comprising different concentrations of the test compound of interest. The second series of wells comprises the mother solution for the test compound of interest for a concentration in the wells of 4 mM. Each series of wells was diluted two by two until the last series for a final concentration of 0.003 mM. Each concentration is duplicated in the same plate. The plate is incubated for 18 h at 37° C. […] If there is antibacterial activity, the bacterial growth is inhibited, which means that no turbidity or bacterial residue is present.
(§8) Tests have been conducted on Gram-positive bacteria with methyl glucopyranoside derivatives. […] After sterilization the solutions are diluted in water. […] Because precipitates formed in the solutions, the effect of these methyl glucopyranoside C10 and C12 acetals was not able to be evaluated. The results obtained for antimicrobial tests on the 3 bacterial strains L. monocytogenes (CIP 103575), E. faecalis (ATCC® 29212) and S. aureus (ATCC® […]) are summarized in Table 1.
(§9) The sorbitan C5, C6, C8, C10 and C12 acetals and ethers were then tested under the same conditions as previously and on the same bacterial strains (see example 5).

E. faecalis (ATCC 29212) = test: as above; type: cell-based; settings: 18 h at 37° C.; for MIC: Enterococcus faecalis, ATCC29212, 18 h
Method: as §1, §2, §3, §4, §5, §6, §7, §8, §9

S. aureus (ATCC 292213) = test: as above; type: cell-based; settings: Staphylococcus aureus, ATCC292213, 18 h at 37° C.
Method: as §1, §2, §3, §4, §5, §6, §7, §8, §9

[2] = system: Gram-positive bacteria (L. monocytogenes, E. faecalis, S. aureus); test: MIC / antimicrobial activity stated for the Gram-positive strains studied together; type: cell-based; settings: concentrations less than or equal to 4 mM
Method: as §1, §2, §3, §4
Each well contains an identical quantity of Mueller-Hinton medium (a rich medium for bacterial culture) and bacteria with final 5×10^5 CFU/cm^3. […]
Tests have been conducted on Gram-positive bacteria with methyl glucopyranoside derivatives. […] Because precipitates formed in the solutions, the effect of these methyl glucopyranoside C10 and C12 acetals was not able to be evaluated. […]

L. monocytogenes = settings: cited from earlier work
S. aureus = settings: cited from earlier work
[3] = Water solubility of test solutions; type: physicochemical; settings: solutions diluted in water, 2.5% m ethanol; precipitates formed
Method: as §8

Structure (SMILES) | melting point [°C] | MIC [1] [mM] | MIC (E. faecalis (ATCC 29212)) [mM] | MIC (S. aureus (ATCC 292213)) [mM] | also measured
CCCCC1OCC2O[C@H](OC)C(O)C(O)[C@@H]2O1 (stereo partly drawn) [Compound 1a, Methyl 4,6-O-pentylidene α-D-glucopyranoside] |  | > 4 | > 4 | > 4 | 
CCCCCCCCCCCC=O [dodecanal] |  |  |  |  | antimicrobial activity on the different bacterial strains [2]: no antimicrobial activity
CCCCCCCCCCCC(=O)OCC(O)CO (centres unmarked) [ML, monolaurine] |  |  |  |  | Minimum inhibitory concentration (MIC) L. monocytogenes, compounds known in the prior art (L. monocytogenes): 0.04 mM (≈ 11 µg/mL); Minimum inhibitory concentration (MIC) S. aureus, compounds known in the prior art (S. aureus): 0.04 mM (≈ 11 µg/mL)
CCCCCC1OCC2O[C@H](OC)C(O)C(O)[C@@H]2O1 (stereo partly drawn) [Compound 1b, Methyl 4,6-O-Hexylidene α-D-glucopyranoside] |  | > 4 | > 4 | > 4 | 

More lines, main results first:

melting point [°C] | MIC [1] [mM] | MIC (E. faecalis (ATCC 29212)) [mM] | MIC (S. aureus (ATCC 292213)) [mM] | Structure (SMILES) | also measured
104 |  |  |  | CCCCCCCCCCCC1OCC2O[C@H](OC)C(O)C(O)[C@@H]2O1 (stereo partly drawn) [Compound 1g, Methyl 4,6-O-Dodecylidene α-D-mannopyranoside] | 
115 |  |  |  | CCCCCCCCCCCC1OCC2O[C@H](OC)C(O)C(O)[C@H]2O1 (stereo partly drawn) [Compound 1h, Methyl 4,6-O-Dodecylidene α-D-galactopyranoside] | 
72 |  |  |  | CCCCCCCCCC1OCC2O[C@H](OC)C(O)C(O)[C@@H]2O1 (stereo partly drawn) [Compound 1d, Methyl 4,6-O-Decylidene α-D-glucopyranoside] | water solubility [3]: low water solubility
 | 2 (≈ 609 µg/mL) | 2 (≈ 609 µg/mL) | 4 (≈ 1220 µg/mL) | CCCCCCCC1OCC2O[C@H](OC)C(O)C(O)[C@@H]2O1 (stereo partly drawn) [Compound 1c, Methyl 4,6-O-Octylidene α-D-glucopyranoside] | Minimum inhibitory concentration (MIC) E. faecalis (E. faecalis (ATCC 29212); listed as AcC8 MeGlu): 4 mM (≈ 1220 µg/mL)
